Results on nine compounds are retold here after PMC6458069 (Molecular microbiology, 2019).

Numbering of substitutions follows the chain as printed. In brackets after ≈: the same amount, converted by molar mass. Read-outs that look alike come from different tables or passages of the source. Where only a bound is given, the exact number is not on record here.

One assay addresses MtVKOR (Mycobacterium tuberculosis, UniProt I6X5W1). The assay can be described thus: In vitro ubiquinone reduction assay with purified MtVKOR. In kind it is biochemical, M. tuberculosis.
Assay [1] concerns the target human protein disulfide isomerase (PDI) (Homo sapiens, UniProt P07237). The assay can be described thus: PDI insulin reduction assay. In kind it is biochemical.
Assay [2] deals with MtVKOR expressed in E. coli. The assay is classed as cell-based, M. tuberculosis.
In assay [3] the target is T1, PaDsbB1 expressed in E. coli (Pseudomonas aeruginosa, UniProt Q02TM7).
T1 sequence (Q02TM7 1-169): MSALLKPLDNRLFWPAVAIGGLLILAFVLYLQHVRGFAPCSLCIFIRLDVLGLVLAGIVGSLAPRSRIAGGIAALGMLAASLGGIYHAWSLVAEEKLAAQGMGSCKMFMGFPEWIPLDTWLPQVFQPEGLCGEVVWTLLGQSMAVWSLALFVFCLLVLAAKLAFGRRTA
In kind it is cell-based, P. aeruginosa. The following applies: agar plates, HTS control.

The test system of the next assay is M. tuberculosis H37Rv. Description: M. tuberculosis H37Rv growth inhibition. The following applies: alamar blue assay, ±SD. (In general: Alamar Blue is a resazurin reagent that responds to reducing activity.)
For assay [4], the system named is M. tuberculosis JR1740 strain. The assay is classed as cell-based. To be noted: JR1740 ± ATc.
The target in assay [5] is T2, RnVKOR expressed in E. coli (Rattus norvegicus, UniProt Q6TEK4, DEL31-33).
T2 sequence (Q6TEK4 with tags, fused parts or gaps DEL31-33): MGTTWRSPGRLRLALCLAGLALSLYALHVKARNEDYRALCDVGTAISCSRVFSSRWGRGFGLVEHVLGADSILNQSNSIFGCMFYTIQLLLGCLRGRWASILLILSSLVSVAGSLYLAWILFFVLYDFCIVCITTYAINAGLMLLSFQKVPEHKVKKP
Description: Agar β-Gal^dbs assay, E. coli expressing RnVKOR. In kind it is cell-based. The following applies: FSH250 strain (Figure 4).

The test system of assay [6] is elastase (LasB) activity of P. aeruginosa wild type. Description: Elastase in vivo assay, wild type P. aeruginosa. In kind it is cell-based. The following applies: Pseudomonas aeruginosa, 15 h, read-out: Elastase in vivo assay IC50, WT.
Another assay deals with T3, PaDsbB1 (ΔdsbB2) (Pseudomonas aeruginosa, UniProt Q02TM7).
T3 sequence (Q02TM7 1-169): T1 sequence (Q02TM7 1-169)
Description: Elastase in vivo assay, ΔdsbB2 mutant. The assay is classed as cell-based, P. aeruginosa.

Another assay concerns the target T4, PaDsbB1 (Pseudomonas aeruginosa, UniProt Q02TM7, C154Y).
T4 sequence (Q02TM7 1-169 C154Y): T1 sequence (Q02TM7 1-169) with C154Y
The assay can be described thus: In vitro ubiquinone reduction assay with purified PaDsbB1. The assay is classed as biochemical, P. aeruginosa.

In a further assay the target is T5, PaDsbB2 (Pseudomonas aeruginosa, UniProt Q02EA7, C17A/C53A).
T5 sequence (Q02EA7 1-163 C17A/C53A): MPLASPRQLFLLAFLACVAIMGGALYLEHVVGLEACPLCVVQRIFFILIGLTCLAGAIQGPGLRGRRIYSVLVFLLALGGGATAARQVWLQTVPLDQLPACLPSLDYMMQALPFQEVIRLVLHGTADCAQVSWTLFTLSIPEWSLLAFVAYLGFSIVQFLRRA
Description: In vitro ubiquinone reduction assay with purified PaDsbB2. The assay is classed as biochemical, P. aeruginosa.

In the next assay the target is T6, EcDsbB (Escherichia coli, UniProt P0A6M2, C49V/C8A).
T6 sequence (P0A6M2 1-176 C8A/C49V): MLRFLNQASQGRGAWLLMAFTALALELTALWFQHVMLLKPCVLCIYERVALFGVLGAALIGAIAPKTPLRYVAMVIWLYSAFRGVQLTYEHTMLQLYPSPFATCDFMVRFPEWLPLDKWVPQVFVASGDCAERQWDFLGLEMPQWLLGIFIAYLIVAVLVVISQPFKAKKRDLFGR
The assay can be described thus: In vitro ubiquinone reduction assay with purified EcDsbB. In kind it is biochemical, E. coli.

[7] abbreviates: read-out: PDI IC50, insulin reduction assay, Table 2, 95% CI in parenthesis.
Where [8] appears, read: read-out: In vitro assay MtVKOR Ki, 1–100 μM Ubiquinone-1, ±SD.

Chain of human protein disulfide isomerase (PDI) (P07237 18-508): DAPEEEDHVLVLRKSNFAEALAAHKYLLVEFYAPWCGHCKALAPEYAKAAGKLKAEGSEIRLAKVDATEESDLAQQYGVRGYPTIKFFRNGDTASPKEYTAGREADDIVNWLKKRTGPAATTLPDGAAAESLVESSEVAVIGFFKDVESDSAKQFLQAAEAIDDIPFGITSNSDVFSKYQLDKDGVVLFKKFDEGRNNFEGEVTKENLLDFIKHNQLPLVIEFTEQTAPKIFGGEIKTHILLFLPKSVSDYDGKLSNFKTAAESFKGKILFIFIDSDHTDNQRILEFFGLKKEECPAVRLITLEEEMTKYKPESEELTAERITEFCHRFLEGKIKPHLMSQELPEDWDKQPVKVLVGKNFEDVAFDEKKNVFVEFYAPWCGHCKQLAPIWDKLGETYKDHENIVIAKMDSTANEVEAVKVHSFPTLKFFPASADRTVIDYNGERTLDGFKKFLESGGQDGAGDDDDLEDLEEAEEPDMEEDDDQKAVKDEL

`O=C1c2ccccc2C(=O)C1c1ccc(Br)cc1` [Bromindione, reference compound]: the IC50 (usually the point on the concentration scale where inhibition reaches its midpoint) against MtVKOR was 5 ± 0.73 µM; in assay [1] it was more than 100 µM. Besides, the inhibitory constant (Ki) (usually a dissociation constant, usually derived from enzyme kinetics or from competition with a known ligand) on MtVKOR came out at 1000 ± 90 nM. In assay [2] (agar plates, HTS control), the “Inhibition of MtVKOR in E. coli screening strain (control)” value is recorded as “inhibits”. In addition, in assay [3], the “Inhibition of PaDsbB1 in E. coli screening strain (control)” value was “but not PaDsbB1”. Further, the “In vivo assay (MIC)” value with M. tuberculosis H37Rv stood at 250 ± 0 µM.
As to `O=C(Nc1ccccc1)c1cc(Cl)ccc1O` [MT1], the IC50 in assay [1] (setting [7]) is more than 100 µM. In addition, in [4], the “MIC in VKOR knockdown (induced) versus non-induced strain (in words)” value was “lower MICs”. Further, in assay [5], the “Inhibition of RnVKOR expressed in E. coli” value (shortened to “Inhibition of RnVKOR”) is listed as “inhibited”. Moreover, in the assay with M. tuberculosis H37Rv, the “In vivo assay (MIC)” value amounted to 50.5 ± 0 µM.
For the compound `OC(CNCc1ccccc1)Cn1c2ccc(Cl)cc2c2cc(Cl)ccc21` (centres unmarked) [MT2], the Ki at MtVKOR (setting [8]) was 4000 ± 300 nM. The IC50 in assay [1] (setting [7]) was more than 100 µM. The “MIC in VKOR knockdown (induced) versus non-induced strain (in words)” value in assay [4] was “lower MICs”. Further, the “Inhibition of RnVKOR” value in assay [5] is “inhibited”. In the assay with M. tuberculosis H37Rv, the “In vivo assay (MIC)” value is 26.04 ± 9 µM.
As to `c1ccc(Nc2nc3nonc3nc2Nc2ccccc2)cc1` [MT7], the IC50 in assay [1] (setting [7]) was more than 100 µM. The “MIC in VKOR knockdown (induced) versus non-induced strain (in words)” value in [4] is reported as “lower MICs”. Further, the “Inhibition of RnVKOR” value in assay [5] is recorded as “inhibited”. The “In vivo assay (MIC)” value in the assay on M. tuberculosis H37Rv amounted to 41 ± 0 µM.
Regarding `Nc1ncn([C@@H]2O[C@H](CO)[C@@H](O)[C@H]2O)c(=O)n1` [MT9], the Ki at MtVKOR (setting [8]) is 2000 ± 50 nM. The IC50 in assay [1] (setting [7]) is more than 100 µM. In addition, in assay [2], the “MIC against MtVKOR when expressed in E. coli (Figure 3)” value came out at 0.44 µM (≈ 0.107 µg/mL). For the same compound, the “In vivo assay (MIC)” value with M. tuberculosis H37Rv was more than 979 ± 0 µM.
Consider `NC(=O)c1nc(Cl)c(Cl)c(Cl)c1Cl` [PA1], for which the IC50 in assay [6] is 280 µM; at PaDsbB1 (ΔdsbB2), 121 µM; at PaDsbB1, 530 ± 60 µM; at PaDsbB2, 600 ± 50 µM; against EcDsbB it was 150 ± 50 µM; in assay [1], more than 100 µM. The compound further gave a Ki at EcDsbB of 100 ± 30 µM. Also, in [1] (insulin reduction assay), the “Inhibition of PDI activity (in words)” value is listed as “does not target”. Besides, the “Inhibition of RnVKOR” value in assay [5] is on record as “does not target”.
Consider `N#CC(C#N)=NNc1ccccc1` [PA2], for which the IC50 in assay [6] is more than 100 µM; against PaDsbB1 (ΔdsbB2), more than 100 µM; on PaDsbB1, 83 ± 17 µM; against PaDsbB2, 83 ± 13 µM; at EcDsbB, 37.5 ± 5 µM; in [1], 98.3 µM. The compound further yielded a Ki at EcDsbB of 30 ± 7 µM. Also, the “Inhibition of PDI activity (in words)” value in [1] (insulin reduction assay) was “inhibited”.
Turning to `Cn1c(=O)c([N+](=O)[O-])c(Cl)c2ccccc21` [PA3], the IC50 in assay [6] amounted to 646 µM; on PaDsbB1 (ΔdsbB2) it was 9 µM; on PaDsbB1 it was 6 ± 0.6 µM; against PaDsbB2, 3 ± 0.11 µM; in assay [1], 98 µM. Moreover, the results for the Ki on PaDsbB1, at PaDsbB2 and at EcDsbB were 2800 ± 200 nM, 7.5 ± 0.8 µM and 13 ± 1.5 µM, respectively. Besides, the “Inhibition of PDI activity (in words)” value in [1] (insulin reduction assay) is “inhibited”.
On to `O=c1c(Cl)c(Cl)cnn1Cc1ccccc1Cl` [compound 12, reference compound], for which the IC50 in assay [6] is 229 µM; against PaDsbB1 (ΔdsbB2) it was 8.6 µM; at PaDsbB1, 4.1 ± 0.6 µM; against PaDsbB2, 6 ± 1 µM; against EcDsbB, 0.014 ± 0.0001 µM; in [1] it was more than 100 µM. Besides, the Ki on PaDsbB1 was 3000 ± 200 nM; on PaDsbB2 it was 4 ± 0.2 µM; at EcDsbB, 0.005 ± 0.001 µM. Moreover, in assay [3], the “Inhibition of PaDsbB1 in E. coli screening strain (control)” value is reported as “inhibits”.
